We go through 1 compound from patent US11827663B2, “Use of UAP inhibitors to inhibit flux through the hexosamine biosynthetic pathway” (The Johns Hopkins University, priority 2014, dated 2023).

Entries after “also recorded” stand apart in the source; their conditions may differ. Where two headings read alike, the source gives them in different places.

Holding throughout (assay type): cell-based
In one data set the test system is PANC-1 cells. Kind of data set: Cell count / cell proliferation assay in PANC-1 cells. The note with it: Homo sapiens. As to the method:
FIGS. 5A and 5B show the results of cell toxicity experiments that were conducted on SW1990 and PANC-1 cells with the analogs indicated. Cells were counted after incubation with each analog for 48 hours. Cell counts were then normalized to controls, data was log transformed, and IC50 values were calculated. […]
(§1) Cells were incubated at a range of concentrations of the UAP inhibitors (typically at 0, 10, 25, 50, 100, and 150 μM) and the number of cells were quantified, typically by automated counting (e.g., with a Coulter Counter Z2 instrument) after 1, 2, 3, or 5 days of exposure.

For data set [1], the system named is primary glioblastoma cell line 612. Kind of data set: Cell count of primary glioblastoma line 612. How it is done: (§2) FIG. 7A depicts the results of primary glioblastoma lines 612 and GS1049 after incubation for 48 h with Ac4Glc2Bz followed by cell counting and normalization to untreated controls. The data is log transformed to easily determine IC50 values. FIG. 7B and FIG. 7C depict the measurement of proliferation of the primary glioblastoma lines after 48 h incubation with Ac4Glc2Bz using a MTT assay.
Furthermore, cell morphologies were grossly altered as concentrations of Ac4Glc2Bz were increased, which likely indicated severe metabolic stress, induction of apoptosis, and possibly altered adhesion.
as §1

Data set [2] has as its system primary glioblastoma line GS1049. In words: Cell count of primary glioblastoma line GS1049. The settings on record: 48 h incubation, cell counting normalized to untreated controls; read-out: Estimated IC50 values, GS 1049. As to the method: as §2, §1
The subject of data set [3] is primary human adipose stem cells (hASCs). Kind of data set: Cell count assay in control cells (human ASCs). From the text: FIG. 4A and FIG. 4B depict histogram results of cell count assays after two days of exposure to each analog in cancer cell lines (SW1990 and PANC-1) and in control cells (human ASCs). […] In all cases, IC50 values were greater than 300 which is the highest concentration tested, for the ACSs, while the Ac4Glc2Bz analogs and Ac4Gal2Bz analogs were effective to reduce cell numbers in both cancer cell lines.

In data set [4] the test system is O-GlcNAc protein modification. In words: Western blot of O-GlcNAcylation with CTD110.6. The note with it: 612, GS1049, SW1990 and PANC-1 cells, 40 μM or 60 μM, 48 h. How it is done:
Exemplary CTD110.6 protein expression results were obtained for 612 cells (FIG. 17A); GS1049 cells (FIG. 17B); SE1990 cells (FIG. 17C); and PANC-1 cells (FIG. 17D) with either 40 μM or 60 μM Ac4Glc2Bz.
For example, as shown in FIG. 17A-17D, Ac4Glc2Bz could change O-GlcNAcylation in a dose-dependent manner in each cell of 612 cells (FIG. 17A); GS1049 (FIG. 17B); SW1990 (FIG. 17C) and PANC-1 (FIG. 17D). In particular, the band intensities of CTD110.6 (anti-O-GlcNAc antibody) from each treated cell decreased as the concentrations of Ac4Glc2Bz treatment were increased. 3×10^5 cells were plated in 6-well plates, with 2 wells per condition tested as indicated in FIG. 17A-D. After 48 h, proteins were collected after freezing for 15 minutes at −80° C. using extraction buffer consisting of 20 mM TrisHCl, pH 7.5, 1% v/v NP-40, 2 mM EDTA, 0.1 mM phenylmethylsulfonyl fluoride, phosphatase inhibitor cocktails 2 and 3 (1×) (SIGMA), ThiametG (10 nM) (Cayman Chemical), β-hexosaminidase inhibitor (5 μM) (Millipore), sodium fluoride (1 mM), and β-glycerophosphate (1 mM). The lysed cells were scraped, collected, and incubated on ice for 20 minutes while vortexing for 5-10 s ever 5 minutes. Samples were sonicated for 5 seconds and then centrifuged at 14,000 RPM for 20 minutes at 4° C. The supernatant was removed, normalized to 1 mg/mL, and 20 μg was loaded onto a 7.5% SDS-PAGE gel. […]
(Immunoblotting shows a protein as a band on a membrane.)

The next data set concerns microRNA. Kind of data set: qRT-PCR analysis of microRNA expression. The note with it: SW1990 and 612 cells, 48 h. How it is done:
FIGS. 20A-20C show qRT-PCR analysis of microRNA expression following treatment with different concentrations of Ac4Glc2Bz, for SW1990 cells of […] (FIG. 20A); for 612 cells of 191b-5p (FIG. 20B); and for SW1990 cells of 181p-5p (FIG. 20C).
The microRNAs analyzed were chosen because they regulated different aspects of cancer cell glycosylation. 3×10^5 cells per well in a 6-well plate were seeded along with the concentrations of Ac4Glc2Bz indicated. Glioblastoma cells were placed on 6-well plates precoated with laminin (1 ug/cm^2). After 48 h, miRNA was extracted using a miRNeasy kit (Qiagen), followed by cDNA synthesis and qrt-PCR using miRCURY LNA™ Universal RT microRNA PCR Starter Kit (Exiqon).
Background: In qPCR the cycle at which signal appears reflects the starting amount.

The next data set relates to c-MYC. Kind of data set: Western blot of c-MYC. The note with it: SW1990, PANC-1, 612 and GS1049 cells, 125 μM or 250 μM. As to the method: Proteins from treated cells were obtained by lysing cells in RIPA buffer (SIGMA) supplemented with Protease Inhibitor Cocktail (1:100), Phosphatase Inhibitor Cocktail 2 (SIGMA) (1:100), and Phosphatase Inhibitor Cocktail 3 (SIGMA)(1:100). SDS-PAGE was performed followed by western blotting for c-MYC (Cell Signaling) and β-actin (SIGMA).

For `CC(=O)OCC1OC(OC(C)=O)[C@@H](NC(=O)c2ccccc2)[C@@H](OC(C)=O)[C@@H]1OC(C)=O` (some centres unmarked) [Ac4Glc2Bz], the IC50 in the data set on PANC-1 cells (PANC-1, 48 h, cell count after two days of incubation, FIG. 3, read-out: IC50 of reduction of cell numbers, PANC-1) was approximately 50 µM; in the data set with PANC-1 cells (PANC-1, FIG. 5B, read-out: IC50 of PANC-1 cell proliferation), approximately 45 µM; in the data set on PANC-1 cells (PANC-1, cells counted after 48 hours incubation, normalized to controls, read-out: Estimated IC50 values, PANC-1) it was 45.5 ± 1.2 µM; in data set [1] (48 h incubation, cell counting normalized to untreated controls, read-out: Estimated IC50 values, 612), 36.2 ± 1.1 µM; in data set [2] it was 88.8 ± 1.8 µM; in data set [3] (Homo sapiens, 48 h, two days of exposure, 300 is the highest concentration tested), more than 300 µM. The “cell densities under a microscope” value in data set [1] (612 cells treated for 48 hours, FIG. 11) is “striking reduction in cell densities in a dose dependent manner”. The “cytotoxicity / inhibition of normal ASCs” value in data set [3] (normal cells) is on record as “minimally inhibits”. Moreover, in data set [4], the “O-GlcNAcylation, band intensities of CTD110.6” value is reported as “decreased; also recorded: changed”. Besides, in the data set with microRNA, the microRNA expression entry was “could be modulated”. In the data set on c-MYC, the c-MYC expression result is “reduce c-MYC expression in a dose-dependent manner; also recorded: altered”.
